From ChEMBL document CHEMBL3871294, “Synthesis of novel substituted pyrimidine derivatives bearing a sulfamide group and their in vitro cancer growth inhibition activity” (Bioorg Med Chem Lett, 2017)

Tests used:
[1] = Antiproliferative activity against human M21 cells after 48 hrs by SRB assay; assay type: functional; conditions: M21, 48 h
[2] = Antiproliferative activity against estrogen dependent human MCF7 cells after 48 hrs by SRB assay; assay type: functional; conditions: MCF7, 48 h
[3] = Antiproliferative activity against human HT-29 cells after 48 hrs by SRB assay; assay type: functional; conditions: HT-29, 48 h
[4] = Antiproliferative activity against human T47D cells; assay type: functional
[5] = Antiproliferative activity against human MDA-MB-468 cells; assay type: functional
[6] = Antiproliferative activity against neonatal-NHDF cells; assay type: cell-based; conditions: human
[7] = Antiproliferative activity against human SKBR3 cells; assay type: functional; conditions: SK-BR-3
[8] = Antiproliferative activity against human HaCaT cells; assay type: cell-based
[9] = Antiproliferative activity against human MDA-MB-231 cells; assay type: functional

For `NS(=O)(=O)NCC1CCN(c2cc(-c3ccc(C(F)(F)F)cc3)ncn2)CC1`, the GI50 [1] was 43.1 µM, the GI50 [2] was 22.5 µM and the GI50 [3] was 29.1 µM.

For `NS(=O)(=O)NCC1CCN(c2cc(-c3ccccc3Cl)ncn2)CC1`, the GI50 [4] was 65.5 µM, the GI50 [5] was > 100 µM and the GI50 [6] was 93 µM. The GI50 [7] was > 100 µM, the GI50 [1] was > 100 µM and the GI50 [8] was > 100 µM. The GI50 [9] was > 100 µM, the GI50 [2] was 62.4 µM and the GI50 [3] was > 100 µM.

With `CCOC(=O)c1ccc(-c2cc(N3CCC(CCNS(N)(=O)=O)CC3)ncn2)cc1` the GI50 [1] was 9 µM, the GI50 [2] was 6.2 µM and the GI50 [3] was 6.8 µM.

`NS(=O)(=O)NCCC1CCN(c2cc(-c3ccc(Cl)cc3)ncn2)CC1` showed a GI50 [1] of 45.2 µM, a GI50 [2] of 19.7 µM and a GI50 [3] of 30.5 µM.

In the case of `NS(=O)(=O)NCC1CCN(c2cc(-c3ccccc3F)ncn2)CC1`, the GI50 [1] is reported as > 100 µM, the GI50 [2] is reported as 48.5 µM and the GI50 [3] is reported as 80.4 µM.

Work on `COC(=O)c1ccc(-c2cc(N3CCC(CCNS(N)(=O)=O)CC3)ncn2)cc1` yielded a GI50 [1] of 19.6 µM, a GI50 [2] of 17.6 µM and a GI50 [3] of 19.6 µM.

In the case of `Cc1ccc(-c2cc(N3CCC(CCNS(N)(=O)=O)CC3)ncn2)cc1`, the GI50 [1] is reported as 57.6 µM, the GI50 [2] is reported as 47.5 µM and the GI50 [3] is reported as 52.3 µM.

Work on `COc1ccc(-c2cc(N3CCC(CCNS(N)(=O)=O)CC3)ncn2)cc1` yielded a GI50 [1] of 69.8 µM, a GI50 [2] of 56.6 µM and a GI50 [3] of 72.3 µM.

Molecule `NS(=O)(=O)NCC1CCN(c2cc(-c3cccc4ccccc34)ncn2)CC1` has a GI50 [1] of 6.6 µM, a GI50 [2] of 12.1 µM and a GI50 [3] of 6.8 µM.

For `COc1ccccc1-c1cc(N2CCC(CCNS(N)(=O)=O)CC2)ncn1`, the GI50 [1] was 96.9 µM, the GI50 [2] was 69.8 µM and the GI50 [3] was 74.3 µM.

For `CCCCc1ccc(-c2cc(N3CCC(CCNS(N)(=O)=O)CC3)ncn2)cc1`, the GI50 [1] was 15.1 µM, the GI50 [2] was 11.3 µM and the GI50 [3] was 13.3 µM.

With `NS(=O)(=O)NCC1CCN(c2cc(-c3ccccc3)ncn2)CC1` the GI50 [4] was 24.1 µM, the GI50 [5] was > 100 µM and the GI50 [6] was > 100 µM. For the same molecule, the GI50 [7] was > 100 µM, the GI50 [1] was > 100 µM and the GI50 [8] was > 100 µM. For the same molecule, the GI50 [9] was > 100 µM, the GI50 [2] was 34.3 µM and the GI50 [3] was > 100 µM.

Molecule `CC(C)(C)c1ccc(-c2cc(N3CCC(CCNS(N)(=O)=O)CC3)ncn2)cc1` has a GI50 [1] of 18.4 µM, a GI50 [2] of 13.1 µM and a GI50 [3] of 10.3 µM.

For `NS(=O)(=O)NCCC1CCN(c2cc(-c3cccc(Cl)c3)ncn2)CC1`, the GI50 [1] was 50.7 µM, the GI50 [2] was 31.2 µM and the GI50 [3] was 31.6 µM.

Work on `CCOC(=O)c1ccc(-c2cc(N3CCC(CNS(N)(=O)=O)CC3)ncn2)cc1` yielded a GI50 [1] of 5 µM, a GI50 [2] of 4.1 µM and a GI50 [3] of 5.7 µM.

`CC(C)(C)c1ccc(-c2cc(N3CCC(CNS(N)(=O)=O)CC3)ncn2)cc1` showed a GI50 [1] of 19.3 µM, a GI50 [2] of 19.7 µM and a GI50 [3] of 8.9 µM.

Molecule `NS(=O)(=O)NCC1CCN(c2cc(-c3ccc(Cl)cc3)ncn2)CC1` has a GI50 [1] of 50.3 µM, a GI50 [2] of 25.5 µM and a GI50 [3] of 37.7 µM.

With `COC(=O)c1ccc(-c2cc(N3CCC(CNS(N)(=O)=O)CC3)ncn2)cc1` the GI50 [1] was 14.1 µM, the GI50 [2] was 17.7 µM and the GI50 [3] was 22.9 µM.

With `COc1ccc(-c2cc(N3CCC(CNS(N)(=O)=O)CC3)ncn2)cc1` the GI50 [4] was 24.5 µM, the GI50 [5] was > 100 µM and the GI50 [6] was 77 µM. The GI50 [7] was > 100 µM, the GI50 [1] was > 100 µM and the GI50 [8] was > 100 µM. The GI50 [9] was > 100 µM, the GI50 [2] was 35.3 µM and the GI50 [3] was > 100 µM.

For `NS(=O)(=O)NCCC1CCN(c2cc(-c3ccccc3F)ncn2)CC1`, the GI50 [1] was 81.8 µM, the GI50 [2] was > 100 µM and the GI50 [3] was 51.8 µM.

With `NS(=O)(=O)NCCC1CCN(c2cc(-c3cccc4ccccc34)ncn2)CC1` the GI50 [1] was 1.8 µM, the GI50 [2] was 5.9 µM and the GI50 [3] was 3.5 µM.

In the case of `COc1ccccc1-c1cc(N2CCC(CNS(N)(=O)=O)CC2)ncn1`, the GI50 [4] is reported as > 100 µM, the GI50 [5] is reported as > 100 µM and the GI50 [6] is reported as > 100 µM. The GI50 [7] was > 100 µM, the GI50 [1] was > 100 µM and the GI50 [8] was > 100 µM. The GI50 [9] was > 100 µM, the GI50 [2] was 10.1 µM and the GI50 [3] was > 100 µM.

In the case of `NS(=O)(=O)NCCC1CCN(c2cc(-c3ccccc3)ncn2)CC1`, the GI50 [1] is reported as > 100 µM, the GI50 [2] is reported as 53.2 µM and the GI50 [3] is reported as 66.5 µM.

In the case of `NS(=O)(=O)NCC1CCN(c2cc(-c3cccc(Cl)c3)ncn2)CC1`, the GI50 [1] is reported as 62.5 µM, the GI50 [2] is reported as 47.1 µM and the GI50 [3] is reported as 47.5 µM.

Molecule `Cc1ccc(-c2cc(N3CCC(CNS(N)(=O)=O)CC3)ncn2)cc1` has a GI50 [1] of 71 µM, a GI50 [2] of 30.6 µM and a GI50 [3] of 33.9 µM.

For `CCCCc1ccc(-c2cc(N3CCC(CNS(N)(=O)=O)CC3)ncn2)cc1`, the GI50 [1] was 47.2 µM, the GI50 [2] was 21.8 µM and the GI50 [3] was 15.2 µM.

Work on `NS(=O)(=O)NCCC1CCN(c2cc(-c3ccc(C(F)(F)F)cc3)ncn2)CC1` yielded a GI50 [1] of 34.8 µM, a GI50 [2] of 15.2 µM and a GI50 [3] of 22.6 µM.

For `NS(=O)(=O)NCCC1CCN(c2cc(-c3ccccc3Cl)ncn2)CC1`, the GI50 [1] was 93.9 µM, the GI50 [2] was 44.8 µM and the GI50 [3] was 52.9 µM.
